# Values of other authors in publication PMC10034008, “Pretargeted imaging beyond the blood–brain barrier” (RSC Medicinal Chemistry, 2022).
# Parameters: method as in ESI 3, 4
# Conditions: irreversible tracers in their respective target regions; ref ESI 3, 4
smiles,measurement,value
[11CH3]N1CN(c2ccccc2)C2(CCN(CCCC(=O)c3ccc(F)cc3)CC2)C1=O [N-[11C]methylspiperone],trapping rate k3,0.06 min⁻¹
CCC(=O)OC1CCN([11CH3])CC1 [[11C]PMP],trapping rate k3,0.03 to 0.35 min⁻¹
